Results reported in patent US9273043B2, “TRPV1 antagonists including dihydroxy substituent and uses thereof” (Purdue Pharma L.P., priority 2011, dated 2016).
Marks after values point to notes of the source that are not given here.

Test system: FCA-induced inflammation of the rat hind paw
Experiment: Freund's complete adjuvant (FCA) model of inflammatory pain, paw withdrawal threshold
Type: in vivo
Conditions: for % Reversal [mean]: rat FCA
Protocol: Test Animals: Each experiment uses rats weighing between 200-260 g at the start of the experiment. The rats are group-housed and have free access to food and water at all times, except prior to oral administration of a Compound of Formula (I) when food is removed for 16 hours before dosing. A control group acts as a comparison to rats treated with a Compound of Formula (I). The control group is administered the vehicle for the Compound of Formula (I). The volume of vehicle administered to the control group is the same as the volume of carrier and Compound of Formula (I) administered to the test group.
Inflammatory Pain: To assess the actions of a Compound of Formula (I) for the treatment or prevention of inflammatory pain, the Freund's complete adjuvant (“FCA”) model of inflammatory pain was used. FCA-induced inflammation of the rat hind paw is associated with the development of persistent inflammatory mechanical hyperalgesia and provides reliable prediction of the anti-hyperalgesic action of clinically useful analgesic drugs (Bartho et al., “Involvement of capsaicin-sensitive neurons in hyperalgesia and enhanced opioid antinociception in inflammation,” Naunyn-Schmiedeberg's Archives of Pharmacol. 342:666-670 (1990)). The right hind paw of each male, 6-week old Jcl:SD rat was administered a 50 μL intraplantar injection of 50% FCA (Sigma-Aldrich). 24 hour post-injection, the animal was assessed for response to noxious mechanical stimuli by determining the PWT, as described below. Rats were then administered a single injection of 0.1, 0.3, 1, 3, or 10 mg/kg of either the product prepared with Compound A155(a) and fumaric acid as described in Example 10, 20 mg/kg of an ibuprofen control (EMD Millipore Chemicals, Inc.), or vehicle as a control (0.5% weight/volume methylcellulose (400cP, Wako Pure Chemical Industries, Ltd., Osaka, Japan)/aqueous solution). […] Responses to noxious mechanical stimuli were then determined 1, 3, 5, and 7 hours post-administration. Percentage reversal of hyperalgesia for each animal was defined as: […]
With the exception of the controls (i.e., ibuprofen, vehicle) where the student's t-test was used, Dunnett's test was conducted for the % reversal. In either instance, values with p<0.05 were considered to be statistically significant. The % reversal results for administration of the product prepared with Compound A155(a) and fumaric acid as described in Example 10 and the respective controls are presented in Table 7.
Response to Mechanical Stimuli as an Assessment of Mechanical Hyperalgesia: The paw pressure assay was used to assess mechanical hyperalgesia. For this assay, hind paw withdrawal thresholds (PWT) to a noxious mechanical stimulus were determined using an analgesymeter (Model 37215, commercially available from Ugo Basile of Italy) as described in Stein, “Unilateral Inflammation of the Hindpaw in Rats as a Model of Prolonged Noxious Stimulation: Alterations in Behavior and Nociceptive Thresholds,” Pharmacol. Biochem. and Behavior 31:451-455 (1988). The maximum weight that could be applied to the hind paw was set at 250 g and the end point was taken as complete withdrawal of the paw. PWT was determined once for each rat at each time point and either only the affected (ipsilateral) paw was tested, or both the ipsilateral and contralateral (non-injured) paw were tested.

Structure (SMILES): CC1CN(c2ncc(C(O)CO)cc2F)CCN1C(=O)Nc1nc2cc(F)ccc2s1.O=C(O)C=CC(=O)O (stereo not drawn)
- minimal effective dose (rat FCA model): 0.1 mg/kg
- % Reversal [mean] (0.1 mg/kg, 1 h after administration): 31.9** %
- % Reversal [mean] (0.1 mg/kg, 1 h after administration, listed as product prepared with Compound A155(a) and fumaric acid): 31.9%
- % Reversal [mean] (0.1 mg/kg, 3 h after administration): 37.8** %
- % Reversal [mean] (0.1 mg/kg, 3 h after administration, listed as product prepared with Compound A155(a) and fumaric acid): 37.8%
- % Reversal [mean] (0.1 mg/kg, 5 h after administration): 31.3** %
- % Reversal [mean] (0.1 mg/kg, 5 h after administration, listed as product prepared with Compound A155(a) and fumaric acid): 31.3%
- % Reversal [mean] (0.1 mg/kg, 7 h after administration): 23.6** %
- % Reversal [mean] (0.1 mg/kg, 7 h after administration, listed as product prepared with Compound A155(a) and fumaric acid): 23.6%
- % Reversal [mean] (0.3 mg/kg, 1 h after administration): 65.0** %
- % Reversal [mean] (0.3 mg/kg, 1 h after administration, listed as product prepared with Compound A155(a) and fumaric acid): 65.0%
- % Reversal [mean] (0.3 mg/kg, 3 h after administration): 60.2** %
- % Reversal [mean] (0.3 mg/kg, 3 h after administration, listed as product prepared with Compound A155(a) and fumaric acid): 60.2%
- % Reversal [mean] (0.3 mg/kg, 5 h after administration): 54.1** %
- % Reversal [mean] (0.3 mg/kg, 5 h after administration, listed as product prepared with Compound A155(a) and fumaric acid): 54.1%
- % Reversal [mean] (0.3 mg/kg, 7 h after administration): 39.4** %
- % Reversal [mean] (0.3 mg/kg, 7 h after administration, listed as product prepared with Compound A155(a) and fumaric acid): 39.4%
- % Reversal [mean] (1 mg/kg, 1 h after administration): 79.4** %
- % Reversal [mean] (1 mg/kg, 3 h after administration): 84.1** %
- % Reversal [mean] (1 mg/kg, 5 h after administration): 78.2** %
- % Reversal [mean] (1 mg/kg, 7 h after administration): 70.5** %
- % Reversal [mean] (3 mg/kg, 1 h after administration): 80.3** %
- % Reversal [mean] (3 mg/kg, 1 h after administration, listed as product prepared with Compound A155(a) and fumaric acid): 80.3%
- % Reversal [mean] (3 mg/kg, 3 h after administration): 87.9** %
- % Reversal [mean] (3 mg/kg, 3 h after administration, listed as product prepared with Compound A155(a) and fumaric acid): 87.9%
- % Reversal [mean] (3 mg/kg, 5 h after administration): 86.6** %
- % Reversal [mean] (3 mg/kg, 5 h after administration, listed as product prepared with Compound A155(a) and fumaric acid): 86.6%
- % Reversal [mean] (3 mg/kg, 7 h after administration): 97.3** %
- % Reversal [mean] (3 mg/kg, 7 h after administration, listed as product prepared with Compound A155(a) and fumaric acid): 97.3%
- % Reversal [mean] (10 mg/kg, 1 h after administration): 102.5** %
- % Reversal [mean] (10 mg/kg, 3 h after administration): 94.1** %
- % Reversal [mean] (10 mg/kg, 5 h after administration): 97.3** %
- % Reversal [mean] (10 mg/kg, 7 h after administration): 93.1** %
